# In patent publication US11697648B2, “Fused pyrimidine pyridinone compounds as JAK inhibitors” (THERAVANCE BIOPHARMA R&D IP, LLC, priority 2019, dated 2023):
# Target: JAK1 (Homo sapiens (Human), UniProt P23458)
# Experiment: Biochemical JAK1 kinase assay (LanthaScreen)
# Details: not given
# Summary of the method: (§1)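 GST-JAK + GFP-STAT1 peptide, HEPES pH 7.5/MgCl2/EGTA/Brij-35 buffer; cpd preincubation 1 h RT; ATP start, 1 h RT; stop with 10 mM EDTA + 2 nM Tb-anti-pSTAT1; TR-FRET 520/495. 4-parameter IC50 → pKi (Cheng-Prusoff).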
# Chain of JAK1 (P23458 whole entry): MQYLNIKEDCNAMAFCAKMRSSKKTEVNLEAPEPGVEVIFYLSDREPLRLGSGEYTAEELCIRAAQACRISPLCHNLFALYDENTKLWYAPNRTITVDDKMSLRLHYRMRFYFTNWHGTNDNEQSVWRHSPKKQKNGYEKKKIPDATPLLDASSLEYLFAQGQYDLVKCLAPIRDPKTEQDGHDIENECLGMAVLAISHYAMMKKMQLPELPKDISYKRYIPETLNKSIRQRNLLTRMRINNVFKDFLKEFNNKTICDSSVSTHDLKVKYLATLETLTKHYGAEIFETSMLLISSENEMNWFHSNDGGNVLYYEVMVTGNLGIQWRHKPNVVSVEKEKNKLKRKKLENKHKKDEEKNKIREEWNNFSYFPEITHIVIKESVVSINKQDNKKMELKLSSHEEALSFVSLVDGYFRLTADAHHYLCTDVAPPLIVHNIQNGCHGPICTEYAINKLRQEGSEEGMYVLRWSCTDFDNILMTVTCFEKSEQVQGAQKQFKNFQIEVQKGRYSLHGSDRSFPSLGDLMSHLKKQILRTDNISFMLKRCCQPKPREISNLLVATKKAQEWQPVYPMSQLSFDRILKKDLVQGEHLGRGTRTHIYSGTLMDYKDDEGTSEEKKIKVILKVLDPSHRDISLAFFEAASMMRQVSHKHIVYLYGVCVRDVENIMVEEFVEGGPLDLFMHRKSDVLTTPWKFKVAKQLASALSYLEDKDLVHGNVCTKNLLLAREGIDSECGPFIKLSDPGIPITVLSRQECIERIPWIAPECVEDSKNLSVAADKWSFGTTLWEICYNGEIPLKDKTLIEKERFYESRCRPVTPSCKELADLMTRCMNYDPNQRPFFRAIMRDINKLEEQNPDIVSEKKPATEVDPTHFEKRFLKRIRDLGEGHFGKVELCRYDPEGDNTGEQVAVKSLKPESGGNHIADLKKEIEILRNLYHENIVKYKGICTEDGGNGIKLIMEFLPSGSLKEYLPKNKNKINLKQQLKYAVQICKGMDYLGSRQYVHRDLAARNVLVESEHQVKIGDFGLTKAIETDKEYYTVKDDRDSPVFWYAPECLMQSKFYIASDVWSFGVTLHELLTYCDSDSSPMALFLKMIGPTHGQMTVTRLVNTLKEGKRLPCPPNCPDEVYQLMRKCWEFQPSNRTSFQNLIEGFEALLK
row,Structure (SMILES),JAK 1 (pKi)
1,C=CC(=O)N1CCN(CCn2c(=O)ccc3cnc(Nc4ccc(N5CCN(S(=O)(=O)C6COC6)CC5)cc4)nc32)CC1 [Example 148],E (E represents a pKi value of 7 or below (Ki of 100 nM or above))
2,C=CC(=O)N1CCN(CCn2c(=O)ccc3cnc(Nc4cnn(C)c4)nc32)C2(CC2)C1 [Example 149],E (E represents a pKi value of 7 or below (Ki of 100 nM or above))
3,C=CC(=O)N1CCN(CCn2c(=O)ccc3cnc(Nc4ccc(N5CCN(C(C)=O)CC5)c(F)c4)nc32)CC1 [Example 152],E (E represents a pKi value of 7 or below (Ki of 100 nM or above))
4,C=CC(=O)N1CCN(CCn2c(=O)ccc3cnc(Nc4ccc(N5CCN(C(C)=O)CC5)c(Cl)c4)nc32)CC1 [Example 153],E (E represents a pKi value of 7 or below (Ki of 100 nM or above))
5,C=CC(=O)N1CCN(CCn2c(=O)ccc3cnc(Nc4ccc(N5CCN(C)CC5)c(Cl)c4)nc32)CC1 [Example 154],E (E represents a pKi value of 7 or below (Ki of 100 nM or above))
6,C=CC(=O)N1CCN(CCn2c(=O)ccc3cnc(Nc4cnn(C)c4)nc32)[C@@H](CCC)C1 [Example 158],E (E represents a pKi value of 7 or below (Ki of 100 nM or above))

# Target: JAK3 (Homo sapiens (Human), UniProt P52333)
# Sequence (P52333 whole entry): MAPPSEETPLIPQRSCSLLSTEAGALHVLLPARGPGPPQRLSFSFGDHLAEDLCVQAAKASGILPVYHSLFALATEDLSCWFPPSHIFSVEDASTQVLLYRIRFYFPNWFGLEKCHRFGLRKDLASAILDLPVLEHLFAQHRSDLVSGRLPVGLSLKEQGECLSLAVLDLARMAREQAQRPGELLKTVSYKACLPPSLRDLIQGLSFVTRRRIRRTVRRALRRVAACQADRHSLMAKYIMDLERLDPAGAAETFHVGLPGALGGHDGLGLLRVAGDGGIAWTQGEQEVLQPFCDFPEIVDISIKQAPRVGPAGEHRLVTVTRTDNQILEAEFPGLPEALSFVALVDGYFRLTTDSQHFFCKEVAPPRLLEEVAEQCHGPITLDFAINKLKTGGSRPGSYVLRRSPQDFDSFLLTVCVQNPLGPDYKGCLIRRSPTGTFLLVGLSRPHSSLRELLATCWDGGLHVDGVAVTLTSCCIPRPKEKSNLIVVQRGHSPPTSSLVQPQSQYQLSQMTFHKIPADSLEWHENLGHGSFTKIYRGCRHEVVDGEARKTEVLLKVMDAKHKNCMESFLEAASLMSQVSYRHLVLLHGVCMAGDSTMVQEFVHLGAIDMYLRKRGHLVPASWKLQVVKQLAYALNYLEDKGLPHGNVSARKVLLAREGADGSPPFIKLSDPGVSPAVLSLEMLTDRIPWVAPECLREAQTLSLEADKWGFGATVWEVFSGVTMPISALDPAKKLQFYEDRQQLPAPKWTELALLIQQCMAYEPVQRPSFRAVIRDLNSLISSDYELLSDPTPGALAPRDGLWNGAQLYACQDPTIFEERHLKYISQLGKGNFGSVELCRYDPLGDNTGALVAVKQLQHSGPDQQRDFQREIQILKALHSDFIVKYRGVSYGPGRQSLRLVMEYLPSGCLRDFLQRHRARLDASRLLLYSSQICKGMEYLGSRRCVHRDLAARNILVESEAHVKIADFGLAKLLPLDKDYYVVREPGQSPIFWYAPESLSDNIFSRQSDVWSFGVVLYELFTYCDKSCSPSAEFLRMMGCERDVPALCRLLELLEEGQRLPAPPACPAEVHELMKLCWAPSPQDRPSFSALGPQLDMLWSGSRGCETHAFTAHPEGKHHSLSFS
# Experiment: Biochemical JAK3 kinase assay (LanthaScreen)
# Details: not given
# Summary of the method: as §1
row,Structure (SMILES),JAK 3 (pKi)
1,C=CC(=O)N1CCN(CCn2c(=O)ccc3cnc(Nc4ccc(N5CCN(S(=O)(=O)C6COC6)CC5)cc4)nc32)CC1 [Example 148],B (B represents pKi value between 9 and 10 (Ki between 1 nM and 0.1 nM))
2,C=CC(=O)N1CCN(CCn2c(=O)ccc3cnc(Nc4cnn(C)c4)nc32)C2(CC2)C1 [Example 149],B (B represents pKi value between 9 and 10 (Ki between 1 nM and 0.1 nM))
3,C=CC(=O)N1CCN(CCn2c(=O)ccc3cnc(Nc4ccc(N5CCN(C(C)=O)CC5)c(F)c4)nc32)CC1 [Example 152],B (B represents pKi value between 9 and 10 (Ki between 1 nM and 0.1 nM))
4,C=CC(=O)N1CCN(CCn2c(=O)ccc3cnc(Nc4ccc(N5CCN(C(C)=O)CC5)c(Cl)c4)nc32)CC1 [Example 153],B (B represents pKi value between 9 and 10 (Ki between 1 nM and 0.1 nM))
5,C=CC(=O)N1CCN(CCn2c(=O)ccc3cnc(Nc4ccc(N5CCN(C)CC5)c(Cl)c4)nc32)CC1 [Example 154],B (B represents pKi value between 9 and 10 (Ki between 1 nM and 0.1 nM))
6,C=CC(=O)N1CCN(CCn2c(=O)ccc3cnc(Nc4cnn(C)c4)nc32)[C@@H](CCC)C1 [Example 158],B (B represents pKi value between 9 and 10 (Ki between 1 nM and 0.1 nM))

# Same assay, conditions: selectivity JAK3 over JAK1, difference of pKi
row,Structure (SMILES),JAK3 (pKi)-JAK1 (pKi)
1,C=CC(=O)N1CCN(CCn2c(=O)ccc3cnc(Nc4ccc(N5CCN(S(=O)(=O)C6COC6)CC5)cc4)nc32)CC1 [Example 148],A (A represents a value of 3 or above)
2,C=CC(=O)N1CCN(CCn2c(=O)ccc3cnc(Nc4cnn(C)c4)nc32)C2(CC2)C1 [Example 149],A (A represents a value of 3 or above)
3,C=CC(=O)N1CCN(CCn2c(=O)ccc3cnc(Nc4ccc(N5CCN(C(C)=O)CC5)c(F)c4)nc32)CC1 [Example 152],A (A represents a value of 3 or above)
4,C=CC(=O)N1CCN(CCn2c(=O)ccc3cnc(Nc4ccc(N5CCN(C(C)=O)CC5)c(Cl)c4)nc32)CC1 [Example 153],A (A represents a value of 3 or above)
5,C=CC(=O)N1CCN(CCn2c(=O)ccc3cnc(Nc4ccc(N5CCN(C)CC5)c(Cl)c4)nc32)CC1 [Example 154],A (A represents a value of 3 or above)
6,C=CC(=O)N1CCN(CCn2c(=O)ccc3cnc(Nc4cnn(C)c4)nc32)[C@@H](CCC)C1 [Example 158],A (A represents a value of 3 or above)

# Target: Tyk2 (Homo sapiens (Human), UniProt P29597)
# Sequence (P29597 whole entry): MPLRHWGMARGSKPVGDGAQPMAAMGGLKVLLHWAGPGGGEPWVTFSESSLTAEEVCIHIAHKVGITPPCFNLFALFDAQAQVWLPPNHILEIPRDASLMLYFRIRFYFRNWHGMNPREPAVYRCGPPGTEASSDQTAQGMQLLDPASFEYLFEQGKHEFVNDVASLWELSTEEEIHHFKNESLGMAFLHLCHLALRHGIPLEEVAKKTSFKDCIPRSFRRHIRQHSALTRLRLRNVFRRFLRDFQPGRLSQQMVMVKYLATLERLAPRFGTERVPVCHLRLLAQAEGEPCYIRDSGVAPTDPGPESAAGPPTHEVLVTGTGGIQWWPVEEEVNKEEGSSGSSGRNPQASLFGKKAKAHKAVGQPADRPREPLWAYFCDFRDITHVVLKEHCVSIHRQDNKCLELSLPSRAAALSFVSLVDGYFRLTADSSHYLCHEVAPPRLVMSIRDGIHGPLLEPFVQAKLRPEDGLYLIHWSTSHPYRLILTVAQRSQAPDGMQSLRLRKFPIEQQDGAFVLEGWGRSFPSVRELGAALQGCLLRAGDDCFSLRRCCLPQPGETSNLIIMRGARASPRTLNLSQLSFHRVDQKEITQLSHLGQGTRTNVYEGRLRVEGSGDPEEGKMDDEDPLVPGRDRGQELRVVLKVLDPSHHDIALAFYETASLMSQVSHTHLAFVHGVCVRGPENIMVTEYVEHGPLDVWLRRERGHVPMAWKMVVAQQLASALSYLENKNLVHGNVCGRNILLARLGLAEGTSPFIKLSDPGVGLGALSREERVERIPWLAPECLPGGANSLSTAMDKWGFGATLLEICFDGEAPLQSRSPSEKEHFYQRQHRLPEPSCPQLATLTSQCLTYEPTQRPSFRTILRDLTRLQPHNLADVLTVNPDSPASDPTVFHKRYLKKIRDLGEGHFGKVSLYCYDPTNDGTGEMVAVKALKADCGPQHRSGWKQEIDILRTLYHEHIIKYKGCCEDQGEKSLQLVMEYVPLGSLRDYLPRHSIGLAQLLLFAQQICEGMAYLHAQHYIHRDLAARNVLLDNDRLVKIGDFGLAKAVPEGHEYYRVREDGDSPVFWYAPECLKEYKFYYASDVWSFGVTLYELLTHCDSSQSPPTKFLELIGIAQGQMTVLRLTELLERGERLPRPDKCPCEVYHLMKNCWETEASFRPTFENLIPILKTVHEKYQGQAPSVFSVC
# Experiment: Biochemical Tyk2 kinase assay (LanthaScreen)
# Details: not given
# Summary of the method: as §1
row,Structure (SMILES),Tyk 2 (pKi)
1,C=CC(=O)N1CCN(CCn2c(=O)ccc3cnc(Nc4ccc(N5CCN(S(=O)(=O)C6COC6)CC5)cc4)nc32)CC1 [Example 148],E (E represents a pKi value of 7 or below (Ki of 100 nM or above))
2,C=CC(=O)N1CCN(CCn2c(=O)ccc3cnc(Nc4cnn(C)c4)nc32)C2(CC2)C1 [Example 149],E (E represents a pKi value of 7 or below (Ki of 100 nM or above))
3,C=CC(=O)N1CCN(CCn2c(=O)ccc3cnc(Nc4ccc(N5CCN(C(C)=O)CC5)c(F)c4)nc32)CC1 [Example 152],E (E represents a pKi value of 7 or below (Ki of 100 nM or above))
4,C=CC(=O)N1CCN(CCn2c(=O)ccc3cnc(Nc4ccc(N5CCN(C(C)=O)CC5)c(Cl)c4)nc32)CC1 [Example 153],E (E represents a pKi value of 7 or below (Ki of 100 nM or above))
5,C=CC(=O)N1CCN(CCn2c(=O)ccc3cnc(Nc4ccc(N5CCN(C)CC5)c(Cl)c4)nc32)CC1 [Example 154],E (E represents a pKi value of 7 or below (Ki of 100 nM or above))
6,C=CC(=O)N1CCN(CCn2c(=O)ccc3cnc(Nc4cnn(C)c4)nc32)[C@@H](CCC)C1 [Example 158],E (E represents a pKi value of 7 or below (Ki of 100 nM or above))

# Tested on: IL-2 stimulated STAT5 phosphorylation in Tall-1 human T cell line (JAK3)
# Experiment: Cellular JAK3 potency assay: inhibition of IL-2 stimulated pSTAT5 in Tall-1 T cells
# Assay type: cell-based
# Details: IL-2 stimulated pSTAT5, Tall-1 T cells
# Summary of the method: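 AlphaLISA SureFire Ultra measures STAT5 Tyr694/699 phosphorylation in lysed Tall-1 human T cells. Cells were exposed to compound for 1 h at 37 °C before a 30 min IL-2 challenge (300 ng/ml final). Values are pIC50 means with standard deviation from signal-versus-concentration curves.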
row,Structure (SMILES),Tall-1 (pIC50)
1,C=CC(=O)N1CCN(CCn2c(=O)ccc3cnc(Nc4ccc(N5CCN(S(=O)(=O)C6COC6)CC5)cc4)nc32)CC1 [Example 148],C (C represents a pIC50 value between 6 and 6.7 (IC50 between 1 μM and 200 nM))
2,C=CC(=O)N1CCN(CCn2c(=O)ccc3cnc(Nc4cnn(C)c4)nc32)C2(CC2)C1 [Example 149],C (C represents a pIC50 value between 6 and 6.7 (IC50 between 1 μM and 200 nM))
3,C=CC(=O)N1CCN(CCn2c(=O)ccc3cnc(Nc4ccc(N5CCN(C(C)=O)CC5)c(F)c4)nc32)CC1 [Example 152],C (C represents a pIC50 value between 6 and 6.7 (IC50 between 1 μM and 200 nM))
4,C=CC(=O)N1CCN(CCn2c(=O)ccc3cnc(Nc4ccc(N5CCN(C(C)=O)CC5)c(Cl)c4)nc32)CC1 [Example 153],C (C represents a pIC50 value between 6 and 6.7 (IC50 between 1 μM and 200 nM))
5,C=CC(=O)N1CCN(CCn2c(=O)ccc3cnc(Nc4ccc(N5CCN(C)CC5)c(Cl)c4)nc32)CC1 [Example 154],B (B represents a pC50 value between 6.7 (included) and 7.5 (IC50 between 200 nM and 32 nM))
6,C=CC(=O)N1CCN(CCn2c(=O)ccc3cnc(Nc4cnn(C)c4)nc32)[C@@H](CCC)C1 [Example 158],C (C represents a pIC50 value between 6 and 6.7 (IC50 between 1 μM and 200 nM))

# Target: JAK2 (Homo sapiens (Human), UniProt O60674)
# Sequence (O60674 whole entry): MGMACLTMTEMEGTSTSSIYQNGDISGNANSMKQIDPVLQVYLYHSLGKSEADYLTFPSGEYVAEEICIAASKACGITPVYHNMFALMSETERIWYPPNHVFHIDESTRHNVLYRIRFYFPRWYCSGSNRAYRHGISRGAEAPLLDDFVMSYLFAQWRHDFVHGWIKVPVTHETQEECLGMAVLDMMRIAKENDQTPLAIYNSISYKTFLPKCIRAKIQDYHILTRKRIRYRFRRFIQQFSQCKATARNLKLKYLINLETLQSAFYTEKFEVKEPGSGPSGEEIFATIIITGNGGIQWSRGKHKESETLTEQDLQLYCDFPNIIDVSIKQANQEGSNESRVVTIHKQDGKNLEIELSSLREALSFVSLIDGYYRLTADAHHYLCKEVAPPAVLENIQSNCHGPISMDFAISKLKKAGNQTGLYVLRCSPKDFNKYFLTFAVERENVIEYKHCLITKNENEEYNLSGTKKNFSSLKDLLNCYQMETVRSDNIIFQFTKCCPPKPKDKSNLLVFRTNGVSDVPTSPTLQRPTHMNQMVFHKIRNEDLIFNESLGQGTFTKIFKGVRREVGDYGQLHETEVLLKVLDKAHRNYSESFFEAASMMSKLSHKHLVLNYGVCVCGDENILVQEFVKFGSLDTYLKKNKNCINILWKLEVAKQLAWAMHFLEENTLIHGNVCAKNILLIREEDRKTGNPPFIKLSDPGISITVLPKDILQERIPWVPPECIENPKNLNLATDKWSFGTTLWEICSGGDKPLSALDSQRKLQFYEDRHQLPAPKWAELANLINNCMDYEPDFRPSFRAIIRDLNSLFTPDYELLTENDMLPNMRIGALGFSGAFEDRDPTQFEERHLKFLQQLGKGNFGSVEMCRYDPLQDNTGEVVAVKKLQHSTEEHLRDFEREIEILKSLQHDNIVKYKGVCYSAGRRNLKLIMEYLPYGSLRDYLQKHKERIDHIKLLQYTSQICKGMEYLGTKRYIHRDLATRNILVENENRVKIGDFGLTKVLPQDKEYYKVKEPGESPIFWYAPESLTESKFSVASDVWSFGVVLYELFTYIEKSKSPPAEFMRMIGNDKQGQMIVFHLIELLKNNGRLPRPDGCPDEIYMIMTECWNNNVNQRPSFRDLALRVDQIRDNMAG
# Experiment: Biochemical JAK2 kinase assay (LanthaScreen)
# Details: not given
# Summary of the method: as §1
row,Structure (SMILES),JAK 2 (pKi)
1,C=CC(=O)N1CCN(CCn2c(=O)ccc3cnc(Nc4ccc(N5CCN(S(=O)(=O)C6COC6)CC5)cc4)nc32)CC1 [Example 148],E (E represents a pKi value of 7 or below (Ki of 100 nM or above))
2,C=CC(=O)N1CCN(CCn2c(=O)ccc3cnc(Nc4cnn(C)c4)nc32)C2(CC2)C1 [Example 149],E (E represents a pKi value of 7 or below (Ki of 100 nM or above))
3,C=CC(=O)N1CCN(CCn2c(=O)ccc3cnc(Nc4ccc(N5CCN(C(C)=O)CC5)c(F)c4)nc32)CC1 [Example 152],E (E represents a pKi value of 7 or below (Ki of 100 nM or above))
4,C=CC(=O)N1CCN(CCn2c(=O)ccc3cnc(Nc4ccc(N5CCN(C(C)=O)CC5)c(Cl)c4)nc32)CC1 [Example 153],E (E represents a pKi value of 7 or below (Ki of 100 nM or above))
5,C=CC(=O)N1CCN(CCn2c(=O)ccc3cnc(Nc4ccc(N5CCN(C)CC5)c(Cl)c4)nc32)CC1 [Example 154],E (E represents a pKi value of 7 or below (Ki of 100 nM or above))
6,C=CC(=O)N1CCN(CCn2c(=O)ccc3cnc(Nc4cnn(C)c4)nc32)[C@@H](CCC)C1 [Example 158],E (E represents a pKi value of 7 or below (Ki of 100 nM or above))
